# Measured values published in ChEMBL document CHEMBL1156533 (2007).
# Calls of active or inactive are those of the source. The rule behind the calls is not given here.
# Legend:
# Mus musculus [1] = species: Mus musculus; assay: Antiasthmatic effect in ovalbumin-challenged BALB/c mouse assessed as decrease in eosinophil infiltration in bronchoalveolar lavage fluid; assay type: functional, Lung
# Mus musculus [2] = species: Mus musculus; assay: Antiasthmatic effect in ovalbumin-challenged BALB/c mouse assessed as decrease in IL5 level in bronchoalveolar lavage fluid by ELISA; assay type: functional, Lung
# Mus musculus [3] = species: Mus musculus; assay: Antiasthmatic effect in ovalbumin-challenged BALB/c mouse assessed as decrease in IL13 level in bronchoalveolar lavage fluid by ELISA; assay type: functional, Lung
# [4] = Inhibition of IL5 production in transgenic BALB/c mouse TH2 cells at 500 uM after 48 hrs; assay type: functional
# [5] = Inhibition of IL13 production in transgenic BALB/c mouse TH2 cells at 500 uM after 48 hrs; assay type: functional
# [6] = Inhibition of IL10 production in transgenic BALB/c mouse TH2 cells at 500 uM after 48 hrs; assay type: functional
# [7] = Inhibition of IL4 production in transgenic BALB/c mouse TH2 cells at 500 uM after 48 hrs; assay type: functional
# Mus musculus [8] = species: Mus musculus; assay: Antiasthmatic effect in ovalbumin-challenged BALB/c mouse assessed as decrease in eosinophil infiltration in bronchoalveolar lavage fluid at 100 ug; assay type: functional, Lung
# Mus musculus [9] = species: Mus musculus; assay: Antiasthmatic effect in ovalbumin-challenged BALB/c mouse assessed as decrease in IL5 level in bronchoalveolar lavage fluid at 100 ug by ELISA; assay type: functional, Lung
# Mus musculus [10] = species: Mus musculus; assay: Antiasthmatic effect in ovalbumin-challenged BALB/c mouse assessed as decrease in IL13 level in bronchoalveolar lavage fluid at 100 ug by ELISA; assay type: functional, Lung
# Mus musculus [11] = species: Mus musculus; assay: Antiasthmatic effect in ovalbumin-challenged BALB/c mouse assessed as decrease in eosinophil infiltration in bronchoalveolar lavage fluid at 25 ug; assay type: functional, Lung
# Mus musculus [12] = species: Mus musculus; assay: Antiasthmatic effect in ovalbumin-challenged BALB/c mouse assessed as decrease in IL5 level in bronchoalveolar lavage fluid at 25 ug by ELISA; assay type: functional, Lung
# Mus musculus [13] = species: Mus musculus; assay: Antiasthmatic effect in ovalbumin-challenged BALB/c mouse assessed as decrease in IL13 level in bronchoalveolar lavage fluid at 25 ug by ELISA; assay type: functional, Lung
# Mus musculus [14] = species: Mus musculus; assay: Antiasthmatic effect in ovalbumin-challenged BALB/c mouse assessed as decrease in eosinophil infiltration in bronchoalveolar lavage fluid at 6 ug; assay type: functional, Lung
# Mus musculus [15] = species: Mus musculus; assay: Antiasthmatic effect in ovalbumin-challenged BALB/c mouse assessed as decrease in IL5 level in bronchoalveolar lavage fluid at 6 ug by ELISA; assay type: functional, Lung
# Mus musculus [16] = species: Mus musculus; assay: Antiasthmatic effect in ovalbumin-challenged BALB/c mouse assessed as decrease in IL13 level in bronchoalveolar lavage fluid at 6 ug by ELISA; assay type: functional, Lung
# Mus musculus [17] = assay: Antiasthmatic effect in ovalbumin-challenged transgenic TH2 cells transfected SCID mouse assessed as decrease in eosinophil infiltration in bronchoalveolar lavage fluid at 100 ug administered 4-6 hrs after challenge; assay type: functional, Lung
# Mus musculus [18] = assay: Antiasthmatic effect in ovalbumin-challenged transgenic TH2 cells transfected SCID mouse assessed as decrease in IL5 level in bronchoalveolar lavage fluid at 100 ug administered 4-6 hrs after challenge by ELISA; assay type: functional, Lung
# Mus musculus [19] = assay: Antiasthmatic effect in ovalbumin-challenged transgenic TH2 cells transfected SCID mouse assessed as decrease in IL13 level in bronchoalveolar lavage fluid at 100 ug administered 4-6 hrs after challenge by ELISA; assay type: functional, Lung
# TH2 [20] = assay: Induction of apoptosis in ovalbumin-challenged transgenic BALB/c mouse TH2 cells transfected in SCID mouse assessed as decrease in viable cell in lungs; assay type: functional, cell-based
# Mus musculus [21] = assay: Antiasthmatic activity in ovalbumin-challenged BALB/c mouse assessed as reduction in airway resistance at 100 ug, intratracheally administered 4 hrs after challenge; assay type: functional, organism-based
# Mus musculus [22] = species: Mus musculus; assay: Antiasthmatic effect in ovalbumin-challenged BALB/c mouse assessed as decrease in peribronchial eosinophil infiltration in bronchoalveolar lavage fluid; assay type: functional, organism-based; details: Lung
# Mus musculus [23] = species: Mus musculus; assay: Antiasthmatic effect in ovalbumin-challenged BALB/c mouse assessed as decrease in perivascular eosinophil infiltration in bronchoalveolar lavage fluid; assay type: functional, organism-based; details: Lung
# [24] = Inhibition of IL4 production in transgenic BALB/c mouse TH2 cells at 100 uM after 48 hrs; assay type: functional
# [25] = Inhibition of IL4 production in transgenic BALB/c mouse TH2 cells at 50 uM after 48 hrs; assay type: functional
# [26] = Inhibition of IL4 production in transgenic BALB/c mouse TH2 cells at 10 uM after 48 hrs; assay type: functional
# [27] = Inhibition of IL5 production in transgenic BALB/c mouse TH2 cells at 100 uM after 48 hrs; assay type: functional
# [28] = Inhibition of IL5 production in transgenic BALB/c mouse TH2 cells at 50 uM after 48 hrs; assay type: functional
# [29] = Inhibition of IL5 production in transgenic BALB/c mouse TH2 cells at 10 uM after 48 hrs; assay type: functional
# [30] = Inhibition of IL13 production in transgenic BALB/c mouse TH2 cells at 100 uM after 48 hrs; assay type: functional
# [31] = Inhibition of IL13 production in transgenic BALB/c mouse TH2 cells at 50 uM after 48 hrs; assay type: functional
# [32] = Inhibition of IL13 production in transgenic BALB/c mouse TH2 cells at 10 uM after 48 hrs; assay type: functional
# [33] = Inhibition of IL10 production in transgenic BALB/c mouse TH2 cells at 100 uM after 48 hrs; assay type: functional
# [34] = Inhibition of IL10 production in transgenic BALB/c mouse TH2 cells at 50 uM after 48 hrs; assay type: functional
# [35] = Inhibition of IL10 production in transgenic BALB/c mouse TH2 cells at 10 uM after 48 hrs; assay type: functional
# TH2 [36] = assay: Antiproliferative activity in transgenic BALB/c mouse TH2 cells assessed as [3H]thymidine incorporation after […]; assay type: functional, cell-based
# TH2 [37] = assay: Induction of apoptosis in transgenic BALB/c mouse TH2 cells after 48 hrs by FACS; assay type: functional, cell-based
# Jurkat [38] = assay: Induction of apoptosis in human Jurkat cells after 48 hrs by FACS; assay type: functional, cell-based
# Dendritic cell = assay: Induction of apoptosis in LPS-stimulated BALB/c mouse bone marrow-derived dendritic cells after 48 hrs by ELISA; assay type: functional, cell-based
# Mus musculus [39] = assay: Antiasthmatic activity in ovalbumin-challenged BALB/c mouse assessed as reduction in airway hyperresponsiveness at 100 ug, intratracheally administered 4 hrs after challenge; assay type: functional, organism-based
# TH2 [40] = assay: Inhibition of TCR-mediated NF-kappaB activation in transgenic BALB/c mouse TH2 cells at 100 uM by EMSA; assay type: cell-based
# TH2 [41] = assay: Inhibition of TCR-mediated JNK1 activation in transgenic BALB/c mouse TH2 cells at 100 uM by in vitro kinase assay; assay type: cell-based
# TH2 [42] = assay: Inhibition of TCR-mediated ERK activation in transgenic BALB/c mouse TH2 cells at 100 uM by Western blotting; assay type: cell-based
# TH2 [43] = assay: Inhibition of TCR-mediated NFAT activation in transgenic BALB/c mouse TH2 cells at 100 uM by Western blotting; assay type: cell-based
# Jurkat [44] = assay: Inhibition of TCR-mediated NF-kappaB activation in human Jurkat cells at 100 uM by EMSA; assay type: cell-based
# Jurkat [45] = assay: Inhibition of TCR-mediated JNK1 activation in human Jurkat cells at 100 uM by in vitro kinase assay; assay type: cell-based
# Jurkat [46] = assay: Inhibition of TCR-mediated ERK activation in human Jurkat cells at 100 uM by Western blotting; assay type: cell-based
# Jurkat [47] = assay: Inhibition of TCR-mediated NFAT activation in human Jurkat cells at 100 uM by Western blotting; assay type: cell-based
# Jurkat [48] = assay: Inhibition of TCR-mediated IkappaB degradation in human Jurkat cells after 30 mins by immunoblotting; assay type: cell-based
# HEK293 [49] = assay: Inhibition of PKC-theta-induced NF-kappaB activation in HEK293 cells by luciferase reporter gene assay; assay type: functional, cell-based; details: Homo sapiens
# HEK293 [50] = assay: Inhibition of Carma1-induced NF-kappaB activation in HEK293 cells by luciferase reporter gene assay; assay type: functional, cell-based; details: Homo sapiens
# HEK293 [51] = assay: Inhibition of Bcl10-induced NF-kappaB activation in HEK293 cells by luciferase reporter gene assay; assay type: functional, cell-based; details: Homo sapiens
# [52] = molecular target: T-cell-specific surface glycoprotein CD28 (Homo sapiens) (UniProt P10747); assay: Inhibition of CD28-induced NF-kappaB activation in human Jurkat cells by EMSA; assay type: functional, cell-based
# Jurkat [53] = assay: Inhibition of CD3/CD28-induced NF-kappaB activation in human Jurkat cells by EMSA; assay type: cell-based
# [54] = Inhibition of IFN-gamma production in transgenic TH1 cells at 500 uM after 48 hrs; assay type: functional
# [55] = Inhibition of IFN-gamma production in transgenic TH1 cells at 100 uM after 48 hrs; assay type: functional
# [56] = Inhibition of IFN-gamma production in transgenic TH1 cells at 50 uM after 48 hrs; assay type: functional
# [57] = Inhibition of IFN-gamma production in transgenic TH1 cells at 10 uM after 48 hrs; assay type: functional
# TH1 = assay: Induction of apoptosis in transgenic TH1 cells after 48 hrs by FACS; assay type: functional, cell-based
# [58] = molecular target: 3-phosphoinositide-dependent protein kinase 1 (Homo sapiens) (UniProt O15530); assay: Inhibition of recombinant PDK1 autophosphorylation by in vitro kinase assay
# [59] = molecular target: 3-phosphoinositide-dependent protein kinase 1 (Homo sapiens) (UniProt O15530); assay: Inhibition of PDK1 phosphorylation in human Jurkat cells by Western blotting
# Chain of 3-phosphoinositide-dependent protein kinase 1 (Homo sapiens) (O15530 whole entry, looked up): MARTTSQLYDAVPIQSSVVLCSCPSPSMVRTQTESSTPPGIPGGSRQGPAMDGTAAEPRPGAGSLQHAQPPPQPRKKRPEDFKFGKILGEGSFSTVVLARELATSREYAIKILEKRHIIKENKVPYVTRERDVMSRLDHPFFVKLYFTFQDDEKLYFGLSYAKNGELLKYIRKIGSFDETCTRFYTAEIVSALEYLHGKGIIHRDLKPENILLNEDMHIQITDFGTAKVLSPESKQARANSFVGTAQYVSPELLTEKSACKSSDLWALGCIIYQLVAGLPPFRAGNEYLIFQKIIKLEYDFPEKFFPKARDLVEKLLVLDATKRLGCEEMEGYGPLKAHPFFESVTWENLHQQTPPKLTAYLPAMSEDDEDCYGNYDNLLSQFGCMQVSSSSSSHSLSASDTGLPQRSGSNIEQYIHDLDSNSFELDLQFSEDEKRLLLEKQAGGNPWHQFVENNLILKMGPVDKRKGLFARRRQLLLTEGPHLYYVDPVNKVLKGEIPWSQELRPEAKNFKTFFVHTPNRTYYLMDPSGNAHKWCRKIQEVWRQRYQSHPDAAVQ
# Chain of T-cell-specific surface glycoprotein CD28 (Homo sapiens) (P10747 whole entry): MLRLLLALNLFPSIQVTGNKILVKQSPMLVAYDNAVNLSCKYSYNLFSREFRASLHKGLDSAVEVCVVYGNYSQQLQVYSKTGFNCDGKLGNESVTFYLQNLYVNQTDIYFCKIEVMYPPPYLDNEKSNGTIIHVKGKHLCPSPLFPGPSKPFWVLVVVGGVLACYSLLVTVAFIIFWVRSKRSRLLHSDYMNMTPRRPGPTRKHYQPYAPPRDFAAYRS
smiles,measurement,setting,value
O=C(O)c1cccnc1C(=O)O [QUINOLINIC ACID],Activity,Mus musculus [1],335000
same,Activity,Mus musculus [2],312 pg/mL
same,Activity,Mus musculus [3],263 pg/mL
same,Activity,[4],4.19 ng/mL
same,Activity,[5],15.4 ng/mL
same,Activity,[6],8.36 ng/mL
same,Activity,[7],11.3 ng/mL
Nc1c(O)cccc1C(=O)O,Activity,Mus musculus [8],84000
same,Activity,Mus musculus [9],153 pg/mL
same,Activity,Mus musculus [10],88 pg/mL
same,Activity,Mus musculus [11],58000
same,Activity,Mus musculus [12],144 pg/mL
same,Activity,Mus musculus [13],91 pg/mL
same,Activity,Mus musculus [14],190000
same,Activity,Mus musculus [15],219 pg/mL
same,Activity,Mus musculus [16],147 pg/mL
same,Activity,Mus musculus [17],11000
same,Activity,Mus musculus [18],<10 pg/mL
same,Activity,Mus musculus [19],<10 pg/mL
same,Activity,TH2 [20],Active
same,Activity,Mus musculus [21],Active
same,Activity,Mus musculus [1],155000
same,Activity,Mus musculus [2],141 pg/mL
same,Activity,Mus musculus [3],66 pg/mL
same,Activity,Mus musculus [22],Active
same,Activity,Mus musculus [23],Active
same,Activity,[24],2 ng/mL
same,Activity,[25],6.7 ng/mL
same,Activity,[26],11.5 ng/mL
same,Activity,[27],<0.1 ng/mL
same,Activity,[28],1.15 ng/mL
same,Activity,[29],3.24 ng/mL
same,Activity,[30],1.7 ng/mL
same,Activity,[31],4.3 ng/mL
same,Activity,[32],14.9 ng/mL
same,Activity,[33],2.37 ng/mL
same,Activity,[34],4.88 ng/mL
same,Activity,[35],7.77 ng/mL
same,Activity,TH2 [36],Active
same,Activity,TH2 [37],Active
same,Activity,Jurkat [38],Active
same,Activity,Dendritic cell,inactive
same,Activity,Mus musculus [39],Active
same,Activity,TH2 [40],Active
same,Activity,TH2 [41],inactive
same,Activity,TH2 [42],inactive
same,Activity,TH2 [43],inactive
same,Activity,Jurkat [44],Active
same,Activity,Jurkat [45],inactive
same,Activity,Jurkat [46],inactive
same,Activity,Jurkat [47],inactive
same,Activity,Jurkat [48],inactive
same,Activity,HEK293 [49],inactive
same,Activity,HEK293 [50],inactive
same,Activity,HEK293 [51],inactive
same,Activity,[52],Active
same,Activity,Jurkat [53],Active
same,Activity,[54],1.7 ng/mL
same,Activity,[55],1.8 ng/mL
same,Activity,[56],1 ng/mL
same,Activity,[57],29.7 ng/mL
same,Activity,TH1,Active
same,Activity,[58],Dose-dependent effect
same,Activity,[59],Active
